# In PubChem BioAssay AID1745844 (Carcinogenic Potency Database (CPDB), 2022):
# Calls of active or inactive are those of the source. How the calls were made is not given here.
# Tested on: rodent lifetime carcinogenesis bioassay, tumor incidence TD50
# Experiment: chronic cancer bioassays in animals – CPDB, compiled studies (AID 1745844)
structure (smiles),measurement,setting,value
O=[N+]([O-])c1ccc(-c2cnc3ccccn23)o1,carcinogen call,"mouse, strain CTM, females, in feed, site: any site (literature study), lesion: several types, types named in the paper, dosed 40 weeks, study length 79 weeks",positive
same,carcinogen call,"mouse, strain CTM, females, in feed, site: liver, lesion: hepatoma, dosed 40 weeks, study length 79 weeks",negative (inactive)
same,carcinogen call,"mouse, strain CTM, females, in feed, site: lung, lesion: one or several types, types not named, dosed 40 weeks, study length 79 weeks",negative (inactive)
same,TD50,"mouse, strain CTM, females, in feed, site: several sites, sites named in the paper, lesion: carcinoma, dosed 40 weeks, study length 79 weeks",21.6 mg/kg/day
same,TD50,"mouse, strain CTM, females, in feed, site: several sites, sites named in the paper, lesion: papilloma, dosed 40 weeks, study length 79 weeks",117 mg/kg/day
same,TD50,"mouse, strain CTM, females, in feed, site: thyroid gland, lesion: lymphosarcoma, dosed 40 weeks, study length 79 weeks",781 mg/kg/day
same,TD50,"mouse, strain CTM, males, in feed, site: any site (literature study), lesion: several types, types named in the paper, dosed 40 weeks, study length 73 weeks",57.1 mg/kg/day
same,carcinogen call,"mouse, strain CTM, males, in feed, site: liver, lesion: hepatoma, dosed 40 weeks, study length 73 weeks",negative (inactive)
same,TD50,"mouse, strain CTM, males, in feed, site: lung, lesion: one or several types, types not named, dosed 40 weeks, study length 73 weeks",763 mg/kg/day (inactive)
same,TD50,"mouse, strain CTM, males, in feed, site: several sites, sites named in the paper, lesion: carcinoma, dosed 40 weeks, study length 73 weeks",40.1 mg/kg/day
same,TD50,"mouse, strain CTM, males, in feed, site: several sites, sites named in the paper, lesion: papilloma, dosed 40 weeks, study length 73 weeks",65.8 mg/kg/day
same,TD50,"rat, strain Wistar, females, in feed, site: any site (literature study), lesion: several types, types named in the paper, dosed 40 weeks, study length 89 weeks",15.8 mg/kg/day
same,TD50,"rat, strain Wistar, females, in feed, site: kidney, lesion: one or several types, types not named, dosed 40 weeks, study length 89 weeks",116 mg/kg/day
same,TD50,"rat, strain Wistar, females, in feed, site: liver, lesion: hepatoma, dosed 40 weeks, study length 89 weeks",644 mg/kg/day
same,TD50,"rat, strain Wistar, females, in feed, site: mammary tissue, wider than the gland, lesion: one or several types, types not named, dosed 40 weeks, study length 89 weeks",33.3 mg/kg/day
same,TD50,"rat, strain Wistar, females, in feed, site: several sites, sites named in the paper, lesion: carcinoma, dosed 40 weeks, study length 89 weeks",443 mg/kg/day
same,TD50,"rat, strain Wistar, females, in feed, site: several sites, sites named in the paper, lesion: papilloma, dosed 40 weeks, study length 89 weeks",27.5 mg/kg/day
same,TD50,"rat, strain Wistar, males, in feed, site: any site (literature study), lesion: several types, types named in the paper, dosed 40 weeks, study length 83 weeks",11.9 mg/kg/day
same,TD50,"rat, strain Wistar, males, in feed, site: kidney, lesion: one or several types, types not named, dosed 40 weeks, study length 83 weeks",21.4 mg/kg/day
same,TD50,"rat, strain Wistar, males, in feed, site: liver, lesion: hepatoma, dosed 40 weeks, study length 83 weeks",959 mg/kg/day
same,TD50,"rat, strain Wistar, males, in feed, site: several sites, sites named in the paper, lesion: carcinoma, dosed 40 weeks, study length 83 weeks",104 mg/kg/day
same,TD50,"rat, strain Wistar, males, in feed, site: several sites, sites named in the paper, lesion: papilloma, dosed 40 weeks, study length 83 weeks",43.7 mg/kg/day
O=NC(=O)CCNCCO,TD50,"hamster, strain Syrian Golden, females, by gavage, site: liver, lesion: cholangioadenoma/carcinoma, dosed 50 weeks, study length 65 weeks",2.68 mg/kg/day
same,TD50,"hamster, strain Syrian Golden, females, by gavage, site: liver, lesion: cholangiocarcinoma, dosed 50 weeks, study length 65 weeks",5.58 mg/kg/day
same,TD50,"hamster, strain Syrian Golden, females, by gavage, site: liver, lesion: hepatocellular adenoma, dosed 50 weeks, study length 65 weeks",5.58 mg/kg/day
same,TD50,"hamster, strain Syrian Golden, females, by gavage, site: liver, lesion: hepatocellular carcinoma/adenoma, dosed 50 weeks, study length 65 weeks",3.72 mg/kg/day
same,TD50,"hamster, strain Syrian Golden, females, by gavage, site: liver, lesion: several types, types named in the paper, dosed 50 weeks, study length 65 weeks",0.997 mg/kg/day
same,TD50,"hamster, strain Syrian Golden, females, by gavage, site: lung, lesion: adenoma, dosed 50 weeks, study length 65 weeks",31.3 mg/kg/day
same,TD50,"hamster, strain Syrian Golden, females, by gavage, site: pancreatic duct, lesion: carcinoma, dosed 50 weeks, study length 65 weeks",3.72 mg/kg/day
same,TD50,"hamster, strain Syrian Golden, females, by gavage, site: pancreatic duct, lesion: several types, types named in the paper, dosed 50 weeks, study length 65 weeks",2.31 mg/kg/day
same,TD50,"rat, strain Fischer 344, females, in drinking water, site: liver, lesion: hepatocellular carcinoma, dosed 50 weeks, study length 120 weeks",2.7 mg/kg/day
same,TD50,"rat, strain Fischer 344, females, in drinking water, site: liver, lesion: neoplastic nodule, dosed 50 weeks, study length 120 weeks",2.7 mg/kg/day
same,TD50,"rat, strain Fischer 344, females, in drinking water, site: liver, lesion: several types, types named in the paper, dosed 50 weeks, study length 120 weeks",1.8 mg/kg/day
CN(C)CCN(Cc1ccsc1)c1ccccn1,carcinogen call,"rat, strain Fischer 344, females, in drinking water, site: liver, lesion: several types, types named in the paper, dosed 80 weeks, study length 130 weeks",negative (inactive)
same,TD50,"rat, strain Fischer 344, females, in drinking water, site: thyroid follicle, lesion: several types, types named in the paper, dosed 80 weeks, study length 130 weeks",10700 mg/kg/day (inactive)
same,TD50,"rat, strain Fischer 344, males, in drinking water, site: liver, lesion: several types, types named in the paper, dosed 80 weeks, study length 130 weeks",96.8 mg/kg/day (inactive)
same,carcinogen call,"rat, strain Fischer 344, males, in drinking water, site: thyroid follicle, lesion: several types, types named in the paper, dosed 80 weeks, study length 130 weeks",negative (inactive)
OC[C@@H](O)[C@@H](O)[C@H](O)[C@H](O)CO,TD50,"mouse, strain B6C3F1, females, in feed, site: all sites, lesion: hemangiosarcoma, dosed 103 weeks, study length 104 weeks",46700 mg/kg/day (inactive)
same,TD50,"mouse, strain B6C3F1, females, in feed, site: all sites, lesion: lymphocytic leukemia, dosed 103 weeks, study length 104 weeks",48000 mg/kg/day
same,carcinogen call,"mouse, strain B6C3F1, males, in feed, site: any site (literature study), lesion: several types, types named in the paper, dosed 103 weeks, study length 104 weeks",negative (inactive)
same,TD50,"mouse, strain B6C3F1, males, in feed, site: lung, lesion: alveolar/bronchiolar adenoma + alveolar/bronchiolar carcinoma, dosed 103 weeks, study length 104 weeks",98100 mg/kg/day
same,TD50,"rat, strain Fischer 344, females, in feed, site: any site (literature study), lesion: several types, types named in the paper, dosed 103 weeks, study length 104 weeks",5000 mg/kg/day (inactive)
same,carcinogen call,"rat, strain Fischer 344, males, in feed, site: any site (literature study), lesion: several types, types named in the paper, dosed 103 weeks, study length 104 weeks",negative (inactive)
same,TD50,"rat, strain Fischer 344, males, in feed, site: liver, lesion: hepatocellular adenoma + hepatocellular carcinoma + neoplastic nodule, dosed 103 weeks, study length 104 weeks",18000 mg/kg/day
CCBr,TD50,"mouse, strain B6C3F1, females, inhaled, site: any site (literature study), lesion: several types, types named in the paper, dosed 103 weeks, study length 105 weeks",571 mg/kg/day
same,TD50,"mouse, strain B6C3F1, females, inhaled, site: lung, lesion: alveolar/bronchiolar adenoma + alveolar/bronchiolar carcinoma, dosed 103 weeks, study length 105 weeks",5810 mg/kg/day
same,TD50,"mouse, strain B6C3F1, females, inhaled, site: uterus, lesion: adenocarcinoma, NOS + adenoma, NOS + squamous-cell carcinoma, dosed 103 weeks, study length 105 weeks",535 mg/kg/day
same,TD50,"mouse, strain B6C3F1, females, inhaled, site: uterus, lesion: adenocarcinoma, NOS + adenoma, NOS, dosed 103 weeks, study length 105 weeks",596 mg/kg/day
same,TD50,"mouse, strain B6C3F1, females, inhaled, site: uterus, lesion: adenocarcinoma, NOS + squamous-cell carcinoma, dosed 103 weeks, study length 105 weeks",681 mg/kg/day
same,TD50,"mouse, strain B6C3F1, females, inhaled, site: uterus, lesion: adenocarcinoma, NOS, dosed 103 weeks, study length 105 weeks",822 mg/kg/day
same,TD50,"mouse, strain B6C3F1, females, inhaled, site: uterus, lesion: adenoma, NOS, dosed 103 weeks, study length 105 weeks",2610 mg/kg/day
same,TD50,"mouse, strain B6C3F1, females, inhaled, site: uterus, lesion: squamous-cell carcinoma, dosed 103 weeks, study length 105 weeks",4440 mg/kg/day
same,TD50,"mouse, strain B6C3F1, males, inhaled, site: any site (literature study), lesion: several types, types named in the paper, dosed 104 weeks, study length 105 weeks",1630 mg/kg/day
same,TD50,"mouse, strain B6C3F1, males, inhaled, site: liver, lesion: hepatocellular adenoma + hepatocellular carcinoma + neoplastic nodule, dosed 104 weeks, study length 105 weeks",3670 mg/kg/day
same,TD50,"mouse, strain B6C3F1, males, inhaled, site: lung, lesion: alveolar/bronchiolar adenoma + alveolar/bronchiolar carcinoma, dosed 104 weeks, study length 105 weeks",1100 mg/kg/day
same,TD50,"mouse, strain B6C3F1, males, inhaled, site: lung, lesion: alveolar/bronchiolar carcinoma, dosed 104 weeks, study length 105 weeks",2390 mg/kg/day
same,TD50,"rat, strain Fischer 344, females, inhaled, site: brain, lesion: glioma, NOS, dosed 104 weeks, study length 106 weeks",1020 mg/kg/day
same,TD50,"rat, strain Fischer 344, females, inhaled, site: liver, lesion: hepatocellular adenoma + hepatocellular carcinoma + neoplastic nodule, dosed 104 weeks, study length 106 weeks",670 mg/kg/day
same,TD50,"rat, strain Fischer 344, females, inhaled, site: lung, lesion: alveolar/bronchiolar adenoma, dosed 104 weeks, study length 106 weeks",1280 mg/kg/day
same,TD50,"rat, strain Fischer 344, males, inhaled, site: adrenal medulla + brain + lung, lesion: pheochromocytoma + pheochromocytoma, malignant + astrocytoma + granulosa-cell tumor, NOS + glioma, NOS + oligodendroglioma + alveola, dosed 104 weeks, study length 106 weeks",151 mg/kg/day
same,TD50,"rat, strain Fischer 344, males, inhaled, site: adrenal medulla, lesion: pheochromocytoma + pheochromocytoma, malignant, dosed 104 weeks, study length 106 weeks",149 mg/kg/day
same,carcinogen call,"rat, strain Fischer 344, males, inhaled, site: brain, lesion: astrocytoma + glioma, NOS + oligodendroglioma, dosed 104 weeks, study length 106 weeks",p
same,TD50,"rat, strain Fischer 344, males, inhaled, site: brain, lesion: granulosa-cell tumor, NOS, dosed 104 weeks, study length 106 weeks",80700 mg/kg/day
same,TD50,"rat, strain Fischer 344, males, inhaled, site: liver, lesion: hepatocellular adenoma + hepatocellular carcinoma + neoplastic nodule, dosed 104 weeks, study length 106 weeks",2280 mg/kg/day
same,TD50,"rat, strain Fischer 344, males, inhaled, site: liver, lesion: neoplastic nodule, dosed 104 weeks, study length 106 weeks",1140 mg/kg/day
same,TD50,"rat, strain Fischer 344, males, inhaled, site: lung, lesion: alveolar/bronchiolar adenoma + alveolar/bronchiolar carcinoma, dosed 104 weeks, study length 106 weeks",582 mg/kg/day
Cc1[nH]cnc1CSCCN=C(NC#N)N(C)N=O,carcinogen call,"mouse, strain C57BL/6, females, in drinking water, site: liver, lesion: several types, types named in the paper, dosed 102 weeks, study length 104 weeks",negative (inactive)
same,carcinogen call,"mouse, strain C57BL/6, females, in drinking water, site: lung, lesion: one or several types, types not named, dosed 102 weeks, study length 104 weeks",negative (inactive)
same,TD50,"rat, strain Fischer 344, females, in drinking water, site: liver, lesion: neoplastic nodule, dosed 106 weeks, study length 131 weeks",43.3 mg/kg/day (inactive)
same,TD50,"rat, strain Fischer 344, females, in drinking water, site: pituitary gland, lesion: one or several types, types not named, dosed 106 weeks, study length 131 weeks",3.6 mg/kg/day (inactive)
same,TD50,"rat, strain Fischer 344, females, in drinking water, site: thyroid gland, lesion: one or several types, types not named, dosed 106 weeks, study length 131 weeks",18.8 mg/kg/day (inactive)
same,carcinogen call,"rat, strain Fischer 344, males, in drinking water, site: liver, lesion: neoplastic nodule, dosed 106 weeks, study length 131 weeks",negative (inactive)
same,carcinogen call,"rat, strain Sprague-Dawley, females, by gavage, site: any site (literature study), lesion: malignant tumor, dosed 52 weeks, study length 104 weeks",negative (inactive)
same,carcinogen call,"rat, strain Sprague-Dawley, females, by gavage, site: any site (literature study), lesion: several types, types named in the paper, dosed 52 weeks, study length 104 weeks",negative (inactive)
same,TD50,"rat, strain Sprague-Dawley, males, by gavage, site: any site (literature study), lesion: malignant tumor, dosed 52 weeks, study length 104 weeks",4820 mg/kg/day (inactive)
same,carcinogen call,"rat, strain Sprague-Dawley, males, by gavage, site: any site (literature study), lesion: several types, types named in the paper, dosed 52 weeks, study length 104 weeks",negative (inactive)
